Reference: the supplement of paper PMC10307832

compound: Cc1nc(C(=O)NCC(=O)O)c(O)c2ccc(Oc3ccccc3)cc12 [FG-4592] + O=C(c1cc(Cc2n[nH]c(=O)c3ccccc23)ccc1F)N1CCN(C(=O)C2CC2)CC1 [Olaparib] (partner 8 µM); experiment: relative viability (nuclei count vs DMSO), 5 days (fraction); higher = more cells survive; details: first compound 0.08 µM
Method in brief: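 Nuclei were stained with Hoechst during a one-step fixation (final 0.05% Triton X-100, 1% formaldehyde, 1 ug/ml Hoechst) carried out 5 days after dosing, then counted on 4× images. The cells, lung cancer lines in 1536-well plates, had been dosed by pin tool the day after seeding with one drug alone or a fixed anchor-drug dose plus five library-drug doses (not always all listed) in √10 steps. Relative viability is the nuclei count in treated wells divided by that in vehicle wells, and each value is the median of duplicate plates.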

Row | Cell Line | relative viability
1 | NCI-H522 | 0.766
2 | NCI-H727 | 0.698
3 | NCI-H1650 | 0.786
4 | EBC-1 | 0.83
5 | NCI-H1703 | 0.428
6 | NCI-H1993 | 0.947
7 | SW 1573 | 0.426
8 | NCI-H838 | 0.796
9 | LCLC-103H | 0.746
10 | NCI-H520 | 0.361
11 | NCI-H2126 | 0.964
12 | EMC-BAC-2 | 0.469
13 | NCI-H2085 | 0.738
14 | Calu-6 | 0.543
15 | HCC-366 | 0.331
16 | NCI-H1666 | 0.764
17 | NCI-H596 | 0.663
18 | LK-2 | 0.556
19 | NCI-H2087 | 0.561
20 | NCI-H2342 | 0.433
21 | SK-MES-1 | 0.655
22 | H3255 | 0.586
23 | COR-L23 | 0.331
24 | COR-L 105 | 0.767
25 | IA-LM | 0.712
26 | LOU-NH91 | 0.93
27 | ChaGo-K-1 | 0.44

Row | Cell Line | relative viability
28 | NCI-H2170 | 0.573
29 | NCI-H2405 | 0.752
30 | HOP-62 | 0.373
31 | HCC-44 | 0.971
32 | A549 | 0.252
33 | LU99A | 0.268
34 | BEN | 1.13
35 | NCI-H1648 | 0.712
36 | HCC-78 | 0.717
37 | LCLC-97TM1 | 0.444
38 | NCI-H2009 | 0.663
39 | A-427 | 0.687
40 | NCI-H441 | 0.431
41 | NCI-H661 | 0.708
42 | NCI-H1734 | 0.597
43 | NCI-H460 | 0.445
44 | NCI-H2347 | 0.622
45 | SK-LU-1 | 0.322
46 | NCI-H1395 | 0.526
47 | 201T | 0.841
48 | NCI-H1915 | 0.25
49 | HCC-827 | 0.591
50 | LXF-289 | 1.09
51 | NCI-H23 | 0.34
52 | NCI-H1299 | 0.935
53 | NCI-H647 | 0.597
54 | CAL-12T | 0.63

same assay, conditions: first compound 0.253 µM

Row | Cell Line | relative viability
55 | NCI-H522 | 0.644
56 | NCI-H727 | 0.782
57 | NCI-H1650 | 0.721
58 | EBC-1 | 0.663
59 | NCI-H1703 | 0.337
60 | NCI-H1993 | 0.926
61 | SW 1573 | 0.632
62 | NCI-H838 | 0.71
63 | LCLC-103H | 0.751
64 | NCI-H520 | 0.342
65 | NCI-H2126 | 0.846
66 | EMC-BAC-2 | 0.491
67 | NCI-H2085 | 0.779
68 | Calu-6 | 0.575
69 | HCC-366 | 0.353
70 | NCI-H1666 | 0.744
71 | NCI-H596 | 0.641
72 | LK-2 | 0.787
73 | NCI-H2087 | 0.51
74 | NCI-H2342 | 0.436
75 | SK-MES-1 | 0.624
76 | H3255 | 0.546
77 | COR-L23 | 0.358
78 | COR-L 105 | 0.787
79 | IA-LM | 0.623
80 | LOU-NH91 | 0.85
81 | ChaGo-K-1 | 0.399
82 | NCI-H2170 | 0.547

Row | Cell Line | relative viability
83 | NCI-H2405 | 0.772
84 | HOP-62 | 0.561
85 | HCC-44 | 0.921
86 | A549 | 0.274
87 | SW 900 | 0.946
88 | LU99A | 0.242
89 | BEN | 0.99
90 | NCI-H1648 | 0.647
91 | NCI-H322M | 0.746
92 | LCLC-97TM1 | 0.417
93 | NCI-H2009 | 0.637
94 | A-427 | 0.731
95 | NCI-H441 | 0.462
96 | NCI-H661 | 0.727
97 | NCI-H1734 | 0.61
98 | NCI-H460 | 0.449
99 | NCI-H2347 | 0.485
100 | SK-LU-1 | 0.396
101 | NCI-H1395 | 0.488
102 | 201T | 0.794
103 | NCI-H1915 | 0.248
104 | HCC-827 | 0.624
105 | LXF-289 | 0.961
106 | NCI-H23 | 0.333
107 | NCI-H1299 | 0.906
108 | NCI-H647 | 0.533
109 | CAL-12T | 0.67

same assay, conditions: first compound 0.8 µM

Row | Cell Line | relative viability
110 | NCI-H727 | 0.752
111 | NCI-H1650 | 0.843
112 | EBC-1 | 0.718
113 | NCI-H1703 | 0.336
114 | SW 1573 | 0.597
115 | NCI-H838 | 0.796
116 | LCLC-103H | 0.695
117 | NCI-H520 | 0.303
118 | NCI-H2126 | 0.857
119 | EMC-BAC-2 | 0.456
120 | NCI-H2085 | 0.845
121 | Calu-6 | 0.653
122 | HCC-366 | 0.352
123 | NCI-H1666 | 0.809
124 | LK-2 | 0.613
125 | NCI-H2087 | 0.645
126 | NCI-H2342 | 0.452
127 | SK-MES-1 | 0.786
128 | H3255 | 0.611
129 | COR-L23 | 0.358
130 | COR-L 105 | 0.792
131 | IA-LM | 0.663
132 | LOU-NH91 | 0.902
133 | ChaGo-K-1 | 0.4

Row | Cell Line | relative viability
134 | NCI-H2170 | 0.707
135 | NCI-H2405 | 0.948
136 | HOP-62 | 0.496
137 | HCC-44 | 1.03
138 | BEN | 1.07
139 | HCC-78 | 0.788
140 | NCI-H322M | 0.713
141 | NCI-H2009 | 0.715
142 | A-427 | 0.718
143 | NCI-H441 | 0.49
144 | NCI-H661 | 0.822
145 | NCI-H1734 | 0.664
146 | NCI-H460 | 0.462
147 | NCI-H2347 | 0.543
148 | SK-LU-1 | 0.491
149 | NCI-H1395 | 0.471
150 | 201T | 0.843
151 | NCI-H1915 | 0.276
152 | HCC-827 | 0.625
153 | LXF-289 | 1.07
154 | NCI-H23 | 0.365
155 | NCI-H1299 | 1.01
156 | NCI-H647 | 0.489
157 | CAL-12T | 0.727

same assay, conditions: first compound 2.53 µM

Row | Cell Line | relative viability
158 | NCI-H522 | 0.588
159 | NCI-H727 | 0.681
160 | NCI-H1650 | 0.781
161 | EBC-1 | 0.659
162 | NCI-H1703 | 0.341
163 | NCI-H1993 | 1.01
164 | SW 1573 | 0.612
165 | NCI-H838 | 0.756
166 | LCLC-103H | 0.708
167 | NCI-H520 | 0.391
168 | NCI-H2126 | 0.876
169 | EMC-BAC-2 | 0.49
170 | NCI-H2085 | 0.744
171 | Calu-6 | 0.56
172 | HCC-366 | 0.435
173 | NCI-H1666 | 0.796
174 | NCI-H596 | 0.708
175 | LK-2 | 0.701
176 | NCI-H2342 | 0.436

Row | Cell Line | relative viability
177 | SK-MES-1 | 0.748
178 | H3255 | 0.629
179 | COR-L23 | 0.3
180 | COR-L 105 | 0.719
181 | IA-LM | 0.81
182 | LOU-NH91 | 0.959
183 | ChaGo-K-1 | 0.461
184 | NCI-H2170 | 0.664
185 | NCI-H2405 | 0.809
186 | HOP-62 | 0.383
187 | HCC-44 | 1
188 | A549 | 0.44
189 | SW 900 | 0.812
190 | LU99A | 0.276
191 | BEN | 1.02
192 | HARA | 0.738
193 | NCI-H1648 | 0.483
194 | HCC-78 | 0.759
195 | NCI-H322M | 0.766

Row | Cell Line | relative viability
196 | LCLC-97TM1 | 0.329
197 | NCI-H2009 | 0.718
198 | A-427 | 0.689
199 | NCI-H441 | 0.502
200 | NCI-H661 | 0.757
201 | NCI-H1734 | 0.68
202 | NCI-H460 | 0.51
203 | NCI-H2347 | 0.596
204 | SK-LU-1 | 0.444
205 | NCI-H1395 | 0.48
206 | 201T | 0.878
207 | NCI-H1915 | 0.253
208 | HCC-827 | 0.705
209 | LXF-289 | 1.01
210 | NCI-H23 | 0.321
211 | NCI-H1299 | 1.01
212 | NCI-H647 | 0.635
213 | CAL-12T | 0.764

same assay, conditions: first compound 8 µM

Row | Cell Line | relative viability
214 | NCI-H522 | 0.678
215 | NCI-H727 | 0.672
216 | NCI-H1650 | 0.869
217 | EBC-1 | 0.662
218 | NCI-H1703 | 0.423
219 | NCI-H1993 | 0.929
220 | SW 1573 | 0.483
221 | NCI-H838 | 0.806
222 | LCLC-103H | 0.751
223 | NCI-H520 | 0.385
224 | NCI-H2126 | 0.919
225 | EMC-BAC-2 | 0.492
226 | NCI-H2085 | 0.873
227 | Calu-6 | 0.648
228 | HCC-366 | 0.296
229 | NCI-H1666 | 0.779
230 | NCI-H596 | 0.625
231 | LK-2 | 0.662
232 | NCI-H2087 | 0.475
233 | NCI-H2342 | 0.422
234 | SK-MES-1 | 0.66

Row | Cell Line | relative viability
235 | H3255 | 0.622
236 | COR-L23 | 0.369
237 | COR-L 105 | 0.635
238 | IA-LM | 0.727
239 | LOU-NH91 | 0.953
240 | ChaGo-K-1 | 0.456
241 | NCI-H2170 | 0.52
242 | NCI-H2405 | 0.859
243 | HOP-62 | 0.338
244 | HCC-44 | 1.01
245 | A549 | 0.385
246 | SW 900 | 0.794
247 | LU99A | 0.29
248 | BEN | 0.956
249 | HARA | 0.987
250 | NCI-H1648 | 1.43
251 | HCC-78 | 0.733
252 | NCI-H322M | 0.897
253 | LCLC-97TM1 | 0.421
254 | NCI-H2009 | 0.621
255 | A-427 | 0.705
